What was measured:
Assay in all cases: KINOMEscan
Conditions in all cases: read-out: Percent Control
[1] = target: ABL1(F317I)-nonphosphorylated (Homo sapiens, UniProt P00519, F317I)
Procedure: (§1) The kinase engagement assay (KINOMEscan®) was performed by DiscoverX assessing binding abilities toward a set of kinases.

GCN2(Kin.Dom.2, S808G) = GCN2(Kin.Dom.2, S808G) (Homo sapiens, UniProt Q9P2K8, S808G)
Procedure: as §1

EPHB6 = EPHB6 (Homo sapiens, UniProt O15197)
Procedure: as §1

MRCKA = MRCKA (Homo sapiens, UniProt Q5VT25)
Procedure: as §1

[2] = target: ABL1(Q252H)-phosphorylated (Homo sapiens, UniProt P00519, Q252H)
Procedure: as §1

PIM1 = PIM1 (Homo sapiens, UniProt P11309)
Procedure: as §1

PAK1 = PAK1 (Homo sapiens, UniProt Q13153)
Sequence of PAK1 (Q13153 whole entry): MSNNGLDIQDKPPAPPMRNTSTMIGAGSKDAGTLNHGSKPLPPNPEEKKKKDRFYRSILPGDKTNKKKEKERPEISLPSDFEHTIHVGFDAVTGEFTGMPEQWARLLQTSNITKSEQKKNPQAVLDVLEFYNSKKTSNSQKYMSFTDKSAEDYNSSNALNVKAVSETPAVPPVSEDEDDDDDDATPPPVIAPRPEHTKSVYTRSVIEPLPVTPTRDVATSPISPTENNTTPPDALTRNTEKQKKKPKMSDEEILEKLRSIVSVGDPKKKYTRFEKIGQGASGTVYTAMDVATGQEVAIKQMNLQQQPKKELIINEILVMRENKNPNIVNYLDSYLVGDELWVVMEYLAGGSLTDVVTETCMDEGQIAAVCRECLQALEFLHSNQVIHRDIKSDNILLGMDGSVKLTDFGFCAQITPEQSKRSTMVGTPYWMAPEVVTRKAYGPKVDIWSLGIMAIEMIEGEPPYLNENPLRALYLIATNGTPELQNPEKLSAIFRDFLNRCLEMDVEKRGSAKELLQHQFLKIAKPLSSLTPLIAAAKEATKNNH
Procedure: as §1

[3] = target: RSK3(Kin.Dom.2-C-terminal) (Homo sapiens, UniProt Q15349)
Procedure: as §1

YSK4 = YSK4 (Homo sapiens, UniProt Q56UN5)
Procedure: as §1

IKK-epsilon = IKK-epsilon (Homo sapiens, UniProt Q14164)
Procedure: as §1

NEK3 = NEK3 (Homo sapiens, UniProt P51956)
Procedure: as §1

[4] = target: RPS6KA5(Kin.Dom.2-C-terminal) (Homo sapiens, UniProt O75582)
Sequence of RPS6KA5(Kin.Dom.2-C-terminal) (O75582 426-687 limits assumed): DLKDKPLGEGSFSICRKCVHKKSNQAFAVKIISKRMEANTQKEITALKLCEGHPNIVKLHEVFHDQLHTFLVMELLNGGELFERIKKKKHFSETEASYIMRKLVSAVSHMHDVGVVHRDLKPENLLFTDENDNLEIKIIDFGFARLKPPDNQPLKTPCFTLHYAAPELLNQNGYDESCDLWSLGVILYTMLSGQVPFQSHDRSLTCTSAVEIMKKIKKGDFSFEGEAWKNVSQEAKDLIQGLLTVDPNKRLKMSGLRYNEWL
Procedure: as §1

GAK = GAK (Homo sapiens, UniProt O14976)
Procedure: as §1

CSF1R-autoinhibited = CSF1R-autoinhibited (Homo sapiens, UniProt P07333)
Procedure: as §1

YANK3 = YANK3 (Homo sapiens, UniProt Q86UX6)
Sequence of YANK3 (Q86UX6 whole entry): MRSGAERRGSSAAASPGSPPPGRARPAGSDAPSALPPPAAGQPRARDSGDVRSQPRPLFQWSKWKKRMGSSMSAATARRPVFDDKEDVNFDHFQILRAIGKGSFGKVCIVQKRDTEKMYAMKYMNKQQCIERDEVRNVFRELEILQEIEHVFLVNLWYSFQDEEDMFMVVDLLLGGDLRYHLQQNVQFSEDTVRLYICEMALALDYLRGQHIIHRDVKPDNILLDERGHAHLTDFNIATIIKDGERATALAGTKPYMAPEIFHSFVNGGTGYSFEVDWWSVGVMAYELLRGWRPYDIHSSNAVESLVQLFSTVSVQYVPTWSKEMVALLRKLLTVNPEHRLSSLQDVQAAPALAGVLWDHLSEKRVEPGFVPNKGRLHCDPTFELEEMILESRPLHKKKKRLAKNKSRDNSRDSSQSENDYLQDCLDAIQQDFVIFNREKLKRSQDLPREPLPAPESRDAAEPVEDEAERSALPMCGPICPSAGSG
Procedure: as §1

MAP4K5 = MAP4K5 (Homo sapiens, UniProt Q9Y4K4)
Sequence of MAP4K5 (Q9Y4K4 whole entry): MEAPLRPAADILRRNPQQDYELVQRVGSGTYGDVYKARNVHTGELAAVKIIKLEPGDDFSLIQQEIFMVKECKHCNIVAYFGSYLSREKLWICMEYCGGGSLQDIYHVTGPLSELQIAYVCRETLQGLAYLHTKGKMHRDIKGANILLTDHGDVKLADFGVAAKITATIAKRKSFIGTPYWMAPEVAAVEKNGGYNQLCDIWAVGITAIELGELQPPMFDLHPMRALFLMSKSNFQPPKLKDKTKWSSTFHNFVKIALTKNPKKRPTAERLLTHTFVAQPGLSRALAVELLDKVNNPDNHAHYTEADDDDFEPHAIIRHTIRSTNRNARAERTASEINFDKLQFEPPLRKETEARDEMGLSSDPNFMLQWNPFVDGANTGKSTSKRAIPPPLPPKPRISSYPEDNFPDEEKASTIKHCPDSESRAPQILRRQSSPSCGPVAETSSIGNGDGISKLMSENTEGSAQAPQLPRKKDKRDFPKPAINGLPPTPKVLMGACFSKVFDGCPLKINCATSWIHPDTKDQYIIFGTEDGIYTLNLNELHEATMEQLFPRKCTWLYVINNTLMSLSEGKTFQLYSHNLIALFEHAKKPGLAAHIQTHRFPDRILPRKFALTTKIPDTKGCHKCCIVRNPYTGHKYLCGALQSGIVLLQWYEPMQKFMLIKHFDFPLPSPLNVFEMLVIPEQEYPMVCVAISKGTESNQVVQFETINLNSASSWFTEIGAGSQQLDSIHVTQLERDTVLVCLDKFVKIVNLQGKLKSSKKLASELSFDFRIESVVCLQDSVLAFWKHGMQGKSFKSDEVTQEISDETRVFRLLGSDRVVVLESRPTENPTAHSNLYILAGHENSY
Procedure: as §1

LIMK2 = LIMK2 (Homo sapiens, UniProt P53671)
Procedure: as §1

MST2 = MST2 (Homo sapiens, UniProt Q13188)
Procedure: as §1

CDKL5 = CDKL5 (Homo sapiens, UniProt O76039)
Procedure: as §1

NIM1 = NIM1 (Homo sapiens, UniProt Q8IY84)
Sequence of NIM1 (Q8IY84 whole entry): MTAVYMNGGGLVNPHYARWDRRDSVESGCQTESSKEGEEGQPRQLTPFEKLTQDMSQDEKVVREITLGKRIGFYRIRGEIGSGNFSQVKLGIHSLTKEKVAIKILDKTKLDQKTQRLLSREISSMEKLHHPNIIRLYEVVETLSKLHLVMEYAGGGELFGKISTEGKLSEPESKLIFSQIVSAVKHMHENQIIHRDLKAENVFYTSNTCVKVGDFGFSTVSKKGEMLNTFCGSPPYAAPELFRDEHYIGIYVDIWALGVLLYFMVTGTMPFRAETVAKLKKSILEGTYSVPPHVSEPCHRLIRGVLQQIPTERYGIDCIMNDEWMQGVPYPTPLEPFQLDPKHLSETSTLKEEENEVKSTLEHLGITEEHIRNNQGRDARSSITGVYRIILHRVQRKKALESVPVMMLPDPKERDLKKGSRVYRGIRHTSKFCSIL
Procedure: as §1

DMPK2 = DMPK2 (Homo sapiens, UniProt Q6DT37)
Procedure: as §1

NEK6 = NEK6 (Homo sapiens, UniProt Q9HC98)
Sequence of NEK6 (Q9HC98 whole entry): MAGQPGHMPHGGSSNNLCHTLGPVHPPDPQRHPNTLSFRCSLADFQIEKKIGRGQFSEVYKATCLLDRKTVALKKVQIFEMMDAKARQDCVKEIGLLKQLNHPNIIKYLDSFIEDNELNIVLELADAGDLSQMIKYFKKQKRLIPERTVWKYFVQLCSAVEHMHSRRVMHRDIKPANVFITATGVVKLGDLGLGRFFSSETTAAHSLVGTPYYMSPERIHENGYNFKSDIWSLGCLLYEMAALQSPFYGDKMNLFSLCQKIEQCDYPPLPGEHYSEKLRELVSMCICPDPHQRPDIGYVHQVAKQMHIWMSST
Procedure: as §1

NEK5 = NEK5 (Homo sapiens, UniProt Q6P3R8)
Procedure: as §1

SIK2 = SIK2 (Homo sapiens, UniProt Q9H0K1)
Sequence of SIK2 (Q9H0K1 whole entry): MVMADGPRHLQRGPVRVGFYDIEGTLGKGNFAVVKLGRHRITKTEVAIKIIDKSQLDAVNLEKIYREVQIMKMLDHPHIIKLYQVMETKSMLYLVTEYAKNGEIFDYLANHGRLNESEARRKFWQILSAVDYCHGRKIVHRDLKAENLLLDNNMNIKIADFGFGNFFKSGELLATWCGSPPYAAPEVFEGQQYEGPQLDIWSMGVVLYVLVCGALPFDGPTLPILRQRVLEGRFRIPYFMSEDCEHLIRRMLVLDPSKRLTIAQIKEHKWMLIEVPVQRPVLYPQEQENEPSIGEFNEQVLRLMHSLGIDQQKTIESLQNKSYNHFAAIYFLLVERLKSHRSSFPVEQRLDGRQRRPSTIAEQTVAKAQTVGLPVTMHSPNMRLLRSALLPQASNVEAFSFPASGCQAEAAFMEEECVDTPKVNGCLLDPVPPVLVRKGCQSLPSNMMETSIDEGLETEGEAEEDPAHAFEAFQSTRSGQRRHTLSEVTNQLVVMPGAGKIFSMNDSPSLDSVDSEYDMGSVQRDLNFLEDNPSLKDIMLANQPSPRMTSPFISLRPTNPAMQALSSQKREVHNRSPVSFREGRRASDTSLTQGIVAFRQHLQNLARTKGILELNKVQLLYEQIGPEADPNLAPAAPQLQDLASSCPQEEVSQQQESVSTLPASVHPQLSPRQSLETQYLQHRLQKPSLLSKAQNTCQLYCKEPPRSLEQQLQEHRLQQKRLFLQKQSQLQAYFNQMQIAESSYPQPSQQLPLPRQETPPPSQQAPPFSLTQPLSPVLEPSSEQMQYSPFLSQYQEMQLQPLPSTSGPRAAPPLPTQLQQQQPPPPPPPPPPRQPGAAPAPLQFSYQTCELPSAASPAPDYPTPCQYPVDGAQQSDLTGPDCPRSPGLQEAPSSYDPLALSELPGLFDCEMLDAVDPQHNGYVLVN
Procedure: as §1

DCAMKL3 = DCAMKL3 (Homo sapiens, UniProt Q9C098)
Sequence of DCAMKL3 (Q9C098 whole entry): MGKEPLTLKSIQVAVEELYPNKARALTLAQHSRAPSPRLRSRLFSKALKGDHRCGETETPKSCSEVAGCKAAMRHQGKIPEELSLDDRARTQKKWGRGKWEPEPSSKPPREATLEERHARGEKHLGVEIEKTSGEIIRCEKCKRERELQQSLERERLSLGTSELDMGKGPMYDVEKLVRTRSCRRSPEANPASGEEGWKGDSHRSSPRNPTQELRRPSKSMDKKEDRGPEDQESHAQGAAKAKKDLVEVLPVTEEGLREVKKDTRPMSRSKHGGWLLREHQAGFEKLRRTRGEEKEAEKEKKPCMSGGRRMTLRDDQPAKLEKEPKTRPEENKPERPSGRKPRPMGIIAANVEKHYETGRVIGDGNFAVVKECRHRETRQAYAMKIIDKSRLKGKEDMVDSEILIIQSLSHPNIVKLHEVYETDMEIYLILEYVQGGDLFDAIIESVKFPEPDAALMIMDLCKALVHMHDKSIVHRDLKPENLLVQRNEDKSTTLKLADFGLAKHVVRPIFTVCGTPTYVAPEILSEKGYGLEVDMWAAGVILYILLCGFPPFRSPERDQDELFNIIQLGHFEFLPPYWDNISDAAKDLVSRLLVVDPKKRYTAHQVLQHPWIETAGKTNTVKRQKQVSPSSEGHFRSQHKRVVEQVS
Procedure: as §1

CSNK1G2 = CSNK1G2 (Homo sapiens, UniProt P78368)
Procedure: as §1

MERTK = MERTK (Homo sapiens, UniProt Q12866)
Procedure: as §1

FYN = FYN (Homo sapiens, UniProt P06241)
Procedure: as §1

Sequence of GCN2(Kin.Dom.2, S808G) (Q9P2K8 590-1001 S808G limits assumed): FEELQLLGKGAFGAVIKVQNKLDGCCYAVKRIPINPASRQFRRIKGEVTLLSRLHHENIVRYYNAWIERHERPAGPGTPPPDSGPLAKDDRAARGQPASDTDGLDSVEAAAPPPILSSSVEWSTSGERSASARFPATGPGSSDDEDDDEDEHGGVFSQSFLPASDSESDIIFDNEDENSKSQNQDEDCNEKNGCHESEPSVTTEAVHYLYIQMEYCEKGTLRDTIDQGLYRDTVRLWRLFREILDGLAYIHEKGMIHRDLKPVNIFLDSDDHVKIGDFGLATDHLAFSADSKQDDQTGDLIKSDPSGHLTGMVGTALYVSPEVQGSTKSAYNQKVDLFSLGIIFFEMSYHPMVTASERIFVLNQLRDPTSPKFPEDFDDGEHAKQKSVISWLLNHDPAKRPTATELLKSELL

SMILES: O=C1CCC(N2C(=O)c3cccc(NCCCCCCCCNC(=O)N4CC[C@H](NC5=Nc6cc(F)ccc6N(CC(F)F)c6ccc(Cl)cc65)C4)c3C2=O)C(=O)N1 (stereo partly drawn) [BJG-05-039, (3S)-3-((2-Chloro-5-(2,2-difluoroethyl)-8-fluoro-5H-dibenzo[b,e][1,4]diazepin-11-yl)amino)-N-(8-((2-(2,6-dioxopiperidin-3-yl)-1,3-dioxoisoindolin-4-yl)amino)octyl)pyrrolidine-1-carboxamide]
- remaining binding at 10 µM [1]: 91%
- remaining binding at 10 µM (GCN2(Kin.Dom.2, S808G)): 56%
- remaining binding at 10 µM (EPHB6): 97%
- remaining binding at 10 µM (MRCKA): 63%
- remaining binding at 10 µM [2]: 100%
- remaining binding at 10 µM (PIM1): 75%
- remaining binding at 10 µM (PAK1): 20%
- remaining binding at 10 µM [3]: 51%
- remaining binding at 10 µM (YSK4): 93%
- remaining binding at 10 µM (IKK-epsilon): 100%
- remaining binding at 10 µM (NEK3): 100%
- remaining binding at 10 µM [4]: 42%
- remaining binding at 10 µM (GAK): 56%
- remaining binding at 10 µM (CSF1R-autoinhibited): 100%
- remaining binding at 10 µM (YANK3): 72%
- remaining binding at 10 µM (MAP4K5): 59%
- remaining binding at 10 µM (LIMK2): 72%
- remaining binding at 10 µM (MST2): 80%
- remaining binding at 10 µM (CDKL5): 100%
- remaining binding at 10 µM (NIM1): 89%
- remaining binding at 10 µM (DMPK2): 72%
- remaining binding at 10 µM (NEK6): 91%
- remaining binding at 10 µM (NEK5): 65%
- remaining binding at 10 µM (SIK2): 97%
- remaining binding at 10 µM (DCAMKL3): 79%
- remaining binding at 10 µM (CSNK1G2): 78%
- remaining binding at 10 µM (MERTK): 90%
- remaining binding at 10 µM (FYN): 71%
